What all share (assay type): in vivo, mouse
In assay [1] the test system is hGLP1R^A316T/+ versus hGLP1R^+/+ mice. In words: IPGTT after GLP-1RA, HFHS-fed heterozygous mice. The conditions noted are these: HFHS diet; 2 nmol/kg; n = 7; fig. S5G,H. As to the method: (§1) All animal procedures were approved by the British Home Office under the UK animals (Scientific Procedures) Act 1986 (Project License number PP7151519 to A. Martinez-Sanchez, Imperial College London, UK) and from the local ethical committee (Animal Welfare and Ethics Review Board) at the Central Biological Services unit of Imperial College London. Animals were housed in groups of up to four adult mice in individually ventilated cages under controlled conditions at 21° to 23°C with 12-hour:12-hour light-to-dark cycles (lights on at 07:00). Ad libitum access to water and feed was provided unless otherwise stated. Lean mice were fed a standard chow diet [RM1 (E); Special Diet Services]. For HFHS diet studies, animals were put on a 58 kcal % fat and sucrose diet (D12331, Research Diets Inc.) ad libitum for 10 to 14 weeks before experiments.
(§2) To examine acute and prolonged glycemic responses to GLP-1RAs, animals were fasted for 2 hours, starting at 8 a.m. on the morning of the experiments, before IPGTTs. GLP-1RAs were then coadministered at the indicated concentrations with 20% (w/v) D-glucose via intraperitoneal injection at weight-adjusted volumes. Baseline glucose readings were taken via tail venipuncture, and subsequent readings were taken at various time points after glucose ± GLP-1RA administration as for the OGTTs (0-hour acute IPGTTs). […]

Assay [2] relates to hGLP1R^A316T/A316T versus hGLP1R^+/+ mice. In words: Plasma insulin 10 min into IPGTT, chow-fed mice. To be noted: chow diet. The procedure: To measure insulin release during IPGTTs, 10 μl of blood samples were collected via tail venipuncture 10 min after a glucose challenge.
Plasma was collected into potassium EDTA cuvettes (Microvette CB 300, 16.444.100, Starstedt) and stored on ice before centrifugation at 8,000g for 10 min at 4°C to collect plasma supernatants in fresh Eppendorf tubes kept at −80°C until further analysis.

For assay [3] the test system is unchanged. Put plainly: IPGTT after GLP-1RA, HFHS-fed homozygous mice. The conditions noted are these: HFHS diet; 2 nmol/kg ip; acute and 6 hours; n = 9; Fig. 2G-J. As to the method:
as §1, §2

In the case of exendin-4, in assay [1], the “Desensitization 6 hours postagonist, A316T/+ versus +/+” value is “significantly increased desensitization”. Also, the “Plasma insulin increase in response to agonist, hGLP1R^A316T/A316T mice” value in assay [2] (10 min into IPGTT, relative to effect in hGLP1R^+/+, Fig. 1L,M) is recorded as “attenuated”. For the same substance, the “Plasma insulin levels in response to agonist, hGLP1R^+/+ mice” value in assay [2] (10 min into IPGTT, versus vehicle, Fig. 1L,M) is reported as “increased”. Besides, the “Agonist-dependent plasma insulin rises (vehicle fold changes), A316T/A316T versus +/+” value in assay [2] (significant at the 6-hour time point, Fig. 1N) is “reduced”. For the same substance, the “IPGTT glucose responses, A316T/A316T versus +/+” value in assay [3] is “slightly more pronounced desensitization”.
As for exendin-F1, the “IPGTT glucose responses, A316T/A316T versus +/+” value in assay [3] is reported as “slightly more pronounced desensitization”.

For the origin of these results see paper PMC13267291, “In vivo functional profiling and structural characterization of the human GLP1R A316T variant” (Science Advances, 2026).
